In PubChem BioAssay (NCI) one finds TGI and GI50 data, which are given here for 27 compounds.

Values joined by “and” are separate entries in the source; they are usually repeats but may differ in a detail not shown here. Equal values may be shown once.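 Values below derive from 48-hour exposures of cells grown in 96-well plates, with endpoints linearly interpolated between the two concentrations bracketing the appropriate inhibition level. Abbreviation: GI50, concentration required for 50% inhibition of growth. TGI: concentration producing complete growth inhibition.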

What all share (assay): NCI-60 cell line screen, 48 h
Assay [1] has as its system A498 renal.
In assay [2] the test system is COLO 205 colon.
Assay [3] deals with LOX IMVI melanoma.
In assay [4] the test system is M14 melanoma.
Assay [5] relates to OVCAR-8 ovarian.
Assay [6] has as its system SF-268 CNS.
In assay [7] the test system is SK-OV-3 ovarian.
The test system of assay [8] is UO-31 renal.
In assay [9] the test system is DU-145 prostate.
The subject of assay [10] is NCI/ADR-RES ovarian.

Consider `O=C(CC1(O)C(=O)Nc2ccccc21)c1ccc(O)cc1O` (stereo not drawn), for which the TGI in [1], in assay [2], in assay [3], in assay [4], in assay [5] and in assay [6] was above 100 µM each time. Further, the TGI in assay [7] and in assay [8] was above 100 µM throughout.

Regarding `CC(=O)[CH-]C(C)=O.CC(=O)[CH-]C(C)=O.CC(=O)[CH-]C(C)=O.[Cl-].[Hf+4]`, the GI50 in assay [1], in [2], in [3], in assay [4], in assay [5] and in [6] was above 100 µM in each case. In addition, the GI50 in assay [7] and in [8] was above 100 µM throughout. Also, the TGI in [1], in assay [2], in assay [3], in assay [4], in [5] and in assay [6] was above 100 µM throughout. Further, the TGI in assay [7] and in [8] was above 100 µM in each case.

`O=C1NC(=O)[C@H]2C3C=CC([C@@H]12)[C@@H]1C(=O)NC(=O)[C@H]31`: the TGI in [2], in assay [9], in [3], in assay [4], in assay [10] and in assay [5] was above 100 µM in each case. Moreover, the TGI in [6] and in [8] was above 100 µM each time.

For the compound `COc1ccc(C2c3cc4c(cc3OC(O)(CO)C2C(=O)O)OCO4)c(OC)c1OC` (stereo not drawn) (tested in a mixture with another compound), the TGI in [2], in assay [3], in assay [4], in assay [5], in assay [7] and in assay [8] was above 100 µM each time.

Take `Cc1cc2c(cc1C)[n+](=O)c(C(=O)c1cccs1)c(C(F)(F)F)n2[O-]`: the GI50 in assay [2] was 5.36 µM and 4.94 µM; in assay [9], 1.05 µM and 2.15 µM; in assay [4], 14.6 µM and 13.5 µM; in assay [10] it was 6.4 µM and 3.28 µM; in assay [5], 1.67 µM and 2.02 µM; in assay [6], 1.12 µM and 0.978 µM. Besides, the GI50 in assay [7] is 7.95 µM and 10.3 µM; in assay [8], 1.49 µM and 1.07 µM. Moreover, the TGI in [2] is 41.1 µM and 22.6 µM; in assay [9], 4.12 µM and 6.87 µM; in assay [3] it was 12.3 µM and 13.2 µM; in [4], 50 µM and > 100 µM; in [10] it was 18.6 µM and 27.2 µM; in assay [5], 50 µM and 6.61 µM. Further, the TGI was 4.11 µM and 3.61 µM in [6]; 50 µM and 49 µM in assay [7]; 5.83 µM and 2.34 µM in assay [8].

In the case of `CCN(CC)CCCN1C(=O)c2c(c(C)c3c(oc4cc(O)ccc43)c2C)C1=O`, the GI50 in [1] is 5.06 µM; in [2] it was 1.56 µM; in assay [9], 1.83 µM; in [3], 1.79 µM; in assay [4] it was 1.8 µM; in assay [5] it was 1.78 µM. In addition, the GI50 in [6] was 1.74 µM; in assay [7], 1.73 µM; in assay [8] it was 1.66 µM. Besides, the TGI in assay [1] is 16.9 µM; in assay [2], 3.13 µM; in [9], 3.32 µM; in [3] it was 3.3 µM; in assay [4], 3.28 µM; in assay [5], 3.61 µM. Further, the TGI in assay [6] was found to be 3.34 µM; in assay [7] it was 3.2 µM; in assay [8], 3.09 µM.

For the compound `O=C1OC2(c3ccccc31)c1cc(I)c(O)c(I)c1Oc1c2cc(I)c(O)c1I`, the TGI in assay [2], in assay [9], in assay [3], in assay [4], in assay [10] and in assay [5] was above 100 µM throughout. Moreover, the TGI in assay [6], in assay [7] and in [8] was above 100 µM in each case.

Turning to `O=C(O/N=C1/CCC/C1=C\c1ccccc1)c1ccccc1`, the TGI in assay [1], in assay [2], in [3], in assay [4], in assay [5] and in assay [6] was above 100 µM in each case. Besides, in assay [7], the TGI was above 100 µM.

With `Cn1c(Cc2ccccc2)nc2cc3ccccc3cc21`, the GI50 in [2] was 37 µM; in assay [9], 26.4 µM; in [3], 24 µM; in assay [4] it was 26.4 µM; in [10], 24.8 µM; in assay [5], 24.6 µM. Besides, the GI50 in assay [6] was 34.7 µM; in assay [7], 49.6 µM; in assay [8], 25.7 µM. Further, the TGI in assay [2] was above 100 µM; in assay [9] it was 66.7 µM; in [3] it was 64.7 µM; in assay [4] it was 64.3 µM; in assay [10] it was 68.7 µM; in assay [5] it was 63.2 µM. Further, the TGI in [6], in [7] and in [8] was above 100 µM throughout.

For `COc1ccc(C(=O)O)c2c(=O)c3ccccc3[nH]c12`, the TGI in [1] is above 100 µM; in assay [2] it was above 100 µM; in assay [3], above 100 µM; in [4], above 31.6 µM; in assay [5], above 100 µM; in [6] it was above 100 µM. Further, the TGI in [7] and in [8] was above 100 µM each time.

Regarding `Cn1cc(C(=O)/C(Cl)=C(\Cl)C(=O)O)c2ccccc21`, the TGI in assay [1], in assay [4], in assay [5], in [7] and in [8] was above 100 µM in each case.

`CO/C=C/c1cc2c(cc1C(OC)OC)OCO2`: the TGI in assay [4] was 87.9 µM; in assay [5], above 100 µM; in assay [6], above 100 µM; in assay [7], 79.3 µM; in assay [8] it was above 100 µM.

Consider `O=C1OC(c2ccccc2)(c2ccccc2)CC1CN1CCOCC1` (stereo not drawn), for which the TGI is above 100 µM in assay [1]; 18.4 µM in assay [2]; 28 µM in assay [3]; 31.4 µM in assay [4]; above 100 µM in [5]; 84 µM in assay [6]. Besides, the TGI in assay [7] is 60.6 µM; in [8] it was 99.4 µM.

With `N=c1oc2cc(O)c(O)cc2cc1C(N)=O`, the TGI in assay [1], in [2], in assay [3], in assay [4], in assay [5] and in assay [6] was above 100 µM throughout. In addition, the TGI in assay [7] and in assay [8] was above 100 µM each time.

Take `Cc1ccc(NC(=O)/C(=N/NC(=O)CC#N)C2C(=O)N(c3ccccc3)N=C2N)cc1C` (stereo not drawn): the TGI in assay [1], in assay [2], in [3], in [4], in assay [5] and in [6] was above 100 µM in each case. In addition, the TGI in [7] and in assay [8] was above 100 µM each time.

In the case of `N#C/C(=C\c1ccc(Br)cc1)n1nnc2cc(F)c(F)cc21`, the GI50 is 1.74 µM in assay [1]; 1.99 µM in [2]; 1.55 µM in [3]; 2.3 µM in assay [10]; 1.69 µM in assay [5]; 1.46 µM in [8]. The TGI is 3.2 µM in assay [1]; 4.04 µM in assay [2]; 2.98 µM in assay [3]; above 100 µM in assay [10]; 3.99 µM in assay [5]; 2.78 µM in [8].

Take `NC(=S)N/N=C1\C(=O)N(c2cccc([N+](=O)[O-])c2)C(=O)C1C(=O)Nc1cccc([N+](=O)[O-])c1` (stereo not drawn): the TGI in assay [1], in assay [2], in assay [3], in [4], in assay [5] and in assay [6] was above 100 µM each time. Moreover, the TGI in [7] and in assay [8] was above 100 µM in each case.

As for `C/C=C/C/C=C/CCC(=O)C1OC1C(N)=O` (stereo not drawn), the TGI in assay [2] worked out at 33.5 µM; in assay [9] it was 31.3 µM; in assay [3], 26.6 µM; in assay [4], 29.2 µM; in assay [10] it was 50.1 µM; in [5], 26.7 µM. Further, the TGI in [6] is 26.9 µM; in assay [7], 81.8 µM; in assay [8], 29.5 µM.

As for `NC1=NN(c2ccccc2)C(=O)C1C(=O)C(=O)Nc1cccc(C(F)(F)F)c1` (stereo not drawn), the TGI in assay [1], in assay [2], in [3], in [4], in assay [5] and in assay [6] was above 100 µM each time. The TGI in assay [7] and in assay [8] was above 100 µM in each case.

`O=C(CSc1nc2sc3c(c2c(=O)n1-c1ccccc1)CCCCC3)N/N=C/c1ccc(F)cc1`: the GI50 is 1.58 µM in assay [2]; 1.24 µM in assay [9]; 2.35 µM in assay [3]; 5.72 µM in [4]; 2.25 µM in [10]; 1.58 µM in assay [5]. The values for the GI50 in assay [6], in assay [7] and in assay [8] were 2.14 µM, 3.47 µM and 3.77 µM, respectively. In addition, the TGI in assay [2] is 3.64 µM; in assay [9] it was 4.3 µM; in [3] it was 14.8 µM; in [4], above 100 µM; in assay [10], 6.72 µM; in assay [5], 5.19 µM. Moreover, the results for the TGI in [6], in assay [7] and in assay [8] were 6.57 µM, 11.8 µM and above 100 µM, respectively.

Turning to `CC(=O)Oc1cc2c(=O)oc3c(OC(C)=O)c(OC(C)=O)c(OC(C)=O)c4c(=O)oc(c1OC(C)=O)c2c34`, the TGI in [1] is above 100 µM; in [2], above 100 µM; in assay [3], 32.6 µM; in [4], above 100 µM; in assay [5], above 100 µM; in [6], above 100 µM. In addition, the TGI in assay [7] and in [8] was above 100 µM in each case.

As to `CC1CC(C)C(=O)C(C(=O)CC2CC(=O)NC2=O)C1` (stereo not drawn), the TGI in [1], in assay [2], in [3], in assay [4], in [5] and in assay [6] was above 100 µM throughout. The TGI in assay [7] and in assay [8] was above 100 µM each time.

On to `O=C1C(Br)=C(c2ccccc2)C(c2ccccc2)=C1c1ccccc1`, for which the TGI in [1] is 29.9 µM; in assay [2], 3.69 µM; in [9], 25.9 µM; in assay [3] it was 2.94 µM; in assay [4], 4.46 µM; in assay [5], 4.46 µM. The TGI in [6] came to 7.52 µM; in assay [7], 29.3 µM; in assay [8] it was 12.8 µM.

For `C/C(=N\[N+](C)(C)C)C(c1ccccc1)C1(c2ccccc2)C(c2ccccc2)=C1c1ccccc1` (stereo not drawn), the TGI in assay [1], in [3], in assay [4], in [5], in assay [7] and in assay [8] was above 100 µM each time.

Consider `O=C(Nc1ccc(N=Nc2ccccc2)cc1)Sc1ccccc1C(=O)O`, for which the TGI in assay [1], in assay [2], in assay [3], in [4], in [5] and in [6] was above 100 µM in each case. Besides, the TGI in assay [8] is above 100 µM.

For the compound `CCC12CC[C@H](C#N)N3CCc4c(n(c5ccccc45)C(=O)C1)C32` (stereo partly drawn), the TGI was 35.1 µM in [1]; 43.1 µM in [2]; 27.3 µM in [3]; 44.9 µM in assay [4]; 57.5 µM in assay [5]; 53.7 µM in assay [6]. Besides, the TGI in assay [7] was found to be 75 µM; in [8], 10.2 µM.

As to `O[C@H]1[C@H]2[C@H](O)CCCN2C[C@H]1O`, the TGI in assay [1], in assay [2], in [3], in [4], in assay [5] and in assay [6] was above 100 µM each time. The TGI in [7] and in assay [8] was above 100 µM each time.
